According to patent publication US10370343B2, “[6,6] Fused bicyclic HDAC8 inhibitors” (FORMA Therapeutics, Inc., priority 2015, dated 2019):

Molecular target: T1, Recombinant N-terminal GST tag full-length human HDAC8 (Homo sapiens, UniProt Q9BY41)
T1 construct: Recombinant N-terminal GST tag full-length human HDAC8; purchased SignalChem H90-30G-1000; host or cells: baculovirus in Sf9 insect cells
T1 sequence (Q9BY41 1-377): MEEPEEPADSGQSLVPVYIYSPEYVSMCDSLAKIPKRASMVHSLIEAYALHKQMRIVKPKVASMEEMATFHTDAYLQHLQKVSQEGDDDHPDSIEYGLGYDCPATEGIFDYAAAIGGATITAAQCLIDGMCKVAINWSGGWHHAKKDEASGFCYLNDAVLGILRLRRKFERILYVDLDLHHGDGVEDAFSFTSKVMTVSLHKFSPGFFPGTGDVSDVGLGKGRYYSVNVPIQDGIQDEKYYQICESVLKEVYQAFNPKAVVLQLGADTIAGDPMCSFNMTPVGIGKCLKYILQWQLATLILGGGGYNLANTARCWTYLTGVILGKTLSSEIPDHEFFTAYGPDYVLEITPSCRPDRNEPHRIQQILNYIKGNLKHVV
Assay: HDAC8 probe binding assay, time resolved fluorescence (TRF) format
Settings: compounds grouped by IC50 range (Table 2)
Method: The HDAC8 probe binding assay was performed using a time resolved fluorescence (TRF) assay format. Recombinant N-terminal GST tag full-length human HDAC8 was expressed and purified from baculovirus in Sf9 insect cells (SignalChem, #[…]-1000). […] Plates were incubated for 16 hours at room temperature before time resolved fluorescence was read on the Envision (Excitation at 340 nm, and Emission at 485 nm and 535 nm, Perkin Elmer). Data from HDAC8 Assays were reported as percent inhibition (inh) compared with control wells based on the following equation: % inh=1-((FLU-AveLow)/(AveHigh-AveLow)) where FLU=measured time resolved fluorescence. AveLow=average time resolved fluorescence of no enzyme control (n=32). AveHigh=average time resolved fluorescence of DMSO control (n=32). IC50 values were determined by curve fitting of the standard 4 parameter logistic fitting algorithm included in the Activity Base software package: IDBS XE Designer Model205. Data is fitted using the Levenburg Marquardt algorithm. Ranges of IC50 values for compounds of the invention are disclosed in Table 2: Table 2. provides the compounds arranged according to […] determined in a time resolved fluorescence (TRF) assay. The compounds are separated into four groups: […]

Row | Compound | IC50
1 | O=C(NO)c1ccc2c(c1)N(Cc1ccc(N3CCCC3=O)cc1)C(=O)CO2 [Compound I-188, N-hydroxy-3-oxo-4-(4-(2-oxopyrrolidin-1-yl)benzyl)-3,4-dihydro-2H-benzo[b][1,4]oxazine-6-carboxamide] | 25 to 100 nM
2 | N#Cc1ccc(CN2C(=O)COc3ccc(C(=O)NO)cc32)cc1 [Compound I-237, 4-(4-cyanobenzyl)-N-hydroxy-3-oxo-3,4-dihydro-2H-benzo[b][1,4]oxazine-6-carboxamide] | ≤ 25 nM
3 | O=C(NO)c1ccc2c(c1)N(Cc1ccc(C(=O)N3CCCC3)cc1)C(=O)CO2 [Compound I-192, N-hydroxy-3-oxo-4-(4-(pyrrolidine-1-carbonyl)benzyl)-3,4-dihydro-2H-benzo[b][1,4]oxazine-6-carboxamide] | 25 to 100 nM
4 | O=C(NO)c1ccc2c(c1)N(CC1CCN(c3ccccc3)CC1)C(=O)CO2 [Compound I-198, N-hydroxy-3-oxo-4-((1-phenylpiperidin-4-yl)methyl)-3,4-dihydro-2H-benzo[b][1,4]oxazine-6-carboxamide] | 25 to 100 nM
5 | COc1ccc(CN2C(=O)OCc3ccc(C(=O)NO)cc32)cc1 [Compound I-165, N-hydroxy-1-(4-methoxybenzyl)-2-oxo-2,4-dihydro-1H-benzo[d][1,3]oxazine-7-carboxamide] | ≤ 25 nM
6 | Cc1cc2oc(CN3C(=O)COc4ccc(C(=O)NO)cc43)nc2cc1Cl [Compound I-261, 4-((5-chloro-6-methylbenzo[d]oxazol-2-yl)methyl)-N-hydroxy-3-oxo-3,4-dihydro-2H-benzo[b][1,4]oxazine-6-carboxamide] | ≤ 25 nM
7 | O=C(NO)c1ccc2c(c1)N(Cc1cn(-c3ccccc3)cn1)C(=O)CO2 [Compound I-205, N-hydroxy-3-oxo-4-((1-phenyl-1H-imidazol-4-yl)methyl)-3,4-dihydro-2H-benzo[b][1,4]oxazine-6-carboxamide] | 25 to 100 nM
8 | CC1(C)Oc2ccc(C(=O)NO)cc2N(CCCc2ccccc2)C1=O [Compound I-298, N-hydroxy-2,2-dimethyl-3-oxo-4-(3-phenylpropyl)-3,4-dihydro-2H-benzo[b][1,4]oxazine-6-carboxamide] | 25 to 100 nM
9 | O=C(NO)c1ccc2c(c1)N(Cc1nc3ccc(C(F)(F)F)cc3o1)C(=O)CO2 [Compound I-233, N-hydroxy-3-oxo-4-((6-(trifluoromethyl)benzo[d]oxazol-2-yl)methyl)-3,4-dihydro-2H-benzo[b][1,4]oxazine-6-carboxamide] | ≤ 25 nM
10 | COCCOc1ccc(CN2C(=O)COc3ccc(C(=O)NO)cc32)cc1 [Compound I-196, N-hydroxy-4-(4-(2-methoxyethoxy)benzyl)-3-oxo-3,4-dihydro-2H-benzo[b][1,4]oxazine-6-carboxamide] | ≤ 25 nM
11 | O=C(NO)c1ccc2c(c1)N(Cc1nc3cc(Cl)cnc3s1)C(=O)CO2 [Compound I-209, 4-((6-chlorothiazolo[5,4-b]pyridin-2-yl)methyl)-N-hydroxy-3-oxo-3,4-dihydro-2H-benzo[b][1,4]oxazine-6-carboxamide] | ≤ 25 nM
12 | COc1ccc2nc(CN3C(=O)COc4ccc(C(=O)NO)cc43)sc2n1 [Compound I-211, N-hydroxy-4-((5-methoxythiazolo[5,4-b]pyridin-2-yl)methyl)-3-oxo-3,4-dihydro-2H-benzo[b][1,4]oxazine-6-carboxamide] | ≤ 25 nM
13 | O=C(NO)c1ccc2c(c1)N(Cc1ccc(-n3ccnc3)cc1)C(=O)CO2 [Compound I-187, 4-(4-(1H-imidazol-1-yl)benzyl)-N-hydroxy-3-oxo-3,4-dihydro-2H-benzo[b][1,4]oxazine-6-carboxamide] | ≤ 25 nM
14 | CC1(C)Oc2ccc(C(=O)NO)cc2N(Cc2cccc(Oc3ccccc3)c2)C1=O [Compound I-225, N-hydroxy-2,2-dimethyl-3-oxo-4-(3-phenoxybenzyl)-3,4-dihydro-2H-benzo[b][1,4]oxazine-6-carboxamide] | 25 to 100 nM
15 | O=C(NO)c1ccc2c(c1)N(Cc1nc3ccc(Cl)cc3o1)C(=O)CO2 [Compound I-287, 4-((6-chlorobenzo[d]oxazol-2-yl)methyl)-N-hydroxy-3-oxo-3,4-dihydro-2H-benzo[b][1,4]oxazine-6-carboxamide] | ≤ 25 nM
16 | O=C(NO)c1ccc2c(c1)N(Cc1ccc(C(F)(F)F)c(F)c1)C(=O)CO2 [Compound I-266, 4-(3-fluoro-4-(trifluoromethyl)benzyl)-N-hydroxy-3-oxo-3,4-dihydro-2H-benzo[b][1,4]oxazine-6-carboxamide] | ≤ 25 nM
17 | O=C(NO)c1ccc2c(c1)N(Cc1cnn(-c3ccccc3)n1)C(=O)CO2 [Compound I-180, N-hydroxy-3-oxo-4-((2-phenyl-2H-1,2,3-triazol-4-yl)methyl)-3,4-dihydro-2H-benzo[b][1,4]oxazine-6-carboxamide] | ≤ 25 nM
18 | O=C(NO)c1ccc2c(c1)N(Cc1ccc(N3CCOCC3)cc1)C(=O)CO2 [Compound I-177, N-hydroxy-4-(4-morpholinobenzyl)-3-oxo-3,4-dihydro-2H-benzo[b][1,4]oxazine-6-carboxamide] | 25 to 100 nM
19 | CC1(C)Oc2ccc(C(=O)NO)cc2N(Cc2nc3ccc(Cl)cc3o2)C1=O [Compound I-294, 4-((6-chlorobenzo[d]oxazol-2-yl)methyl)-N-hydroxy-2,2-dimethyl-3-oxo-3,4-dihydro-2H-benzo[b][1,4]oxazine-6-carboxamide] | ≤ 25 nM
20 | CC(C)(C)OC(=O)N1CCc2cc(CN3C(=O)COc4ccc(C(=O)NO)cc43)ccc2C1 [Compound I-181, tert-butyl 6-((6-(hydroxycarbamoyl)-3-oxo-2,3-dihydrobenzo[b][1,4]oxazin-4-yl)methyl)-3,4-dihydroisoquinoline-2(1H)-carboxylate] | ≤ 25 nM

Further lines, results first:

Row | IC50 | Compound
21 | 25 to 100 nM | CC1(C)Oc2ccc(C(=O)NO)cc2N(Cc2ccc(OC(F)(F)F)cc2F)C1=O [Compound I-322, 4-(2-fluoro-4-(trifluoromethoxy)benzyl)-N-hydroxy-2,2-dimethyl-3-oxo-3,4-dihydro-2H-benzo[b][1,4]oxazine-6-carboxamide]
22 | 25 to 100 nM | O=C(NO)c1ccc2c(c1)N(Cc1cccc(C(F)(F)F)c1Cl)C(=O)CO2 [Compound I-354, 4-(2-chloro-3-(trifluoromethyl)benzyl)-N-hydroxy-3-oxo-3,4-dihydro-2H-benzo[b][1,4]oxazine-6-carboxamide]
23 | 25 to 100 nM | CC1(C)Oc2ccc(C(=O)NO)cc2N(Cc2cccc(OC(F)(F)F)c2)C1=O [Compound I-319, N-hydroxy-2,2-dimethyl-3-oxo-4-(3-(trifluoromethoxy)benzyl)-3,4-dihydro-2H-benzo[b][1,4]oxazine-6-carboxamide]
24 | ≤ 25 nM | O=C(NO)c1ccc2c(c1)N(Cc1ccc3ccncc3c1)C(=O)CO2 [Compound I-337, N-hydroxy-4-(isoquinolin-7-ylmethyl)-3-oxo-3,4-dihydro-2H-benzo[b][1,4]oxazine-6-carboxamide]
25 | ≤ 25 nM | O=C(NO)c1ccc2c(c1)N(Cc1cccc(Cl)c1F)C(=O)CO2 [Compound I-340, 4-(3-chloro-2-fluorobenzyl)-N-hydroxy-3-oxo-3,4-dihydro-2H-benzo[b][1,4]oxazine-6-carboxamide]
26 | 25 to 100 nM | CN(C)C(=O)c1ccc(CN2C(=O)COc3ccc(C(=O)NO)cc32)cc1 [Compound I-360, 4-(4-(dimethylcarbamoyl)benzyl)-N-hydroxy-3-oxo-3,4-dihydro-2H-benzo[b][1,4]oxazine-6-carboxamide]
27 | 25 to 100 nM | CC1(C)Oc2ccc(C(=O)NO)cc2N(Cc2ccccc2OC(F)(F)F)C1=O [Compound I-302, N-hydroxy-2,2-dimethyl-3-oxo-4-(2-(trifluoromethoxy)benzyl)-3,4-dihydro-2H-benzo[b][1,4]oxazine-6-carboxamide]
28 | 25 to 100 nM | CC1(C)Oc2ccc(C(=O)NO)cc2N(Cc2ccc(-c3ccccc3)cc2)C1=O [Compound I-306, 4-([1,1′-biphenyl]-4-ylmethyl)-N-hydroxy-2,2-dimethyl-3-oxo-3,4-dihydro-2H-benzo[b][1,4]oxazine-6-carboxamide]
29 | ≤ 25 nM | NC(=O)c1ccc(CN2C(=O)COc3ccc(C(=O)NO)cc32)cc1 [Compound I-362, 4-(4-carbamoylbenzyl)-N-hydroxy-3-oxo-3,4-dihydro-2H-benzo[b][1,4]oxazine-6-carboxamide]
30 | 25 to 100 nM | CC1(C)Oc2ccc(C(=O)NO)cc2N(Cc2c(Cl)cccc2Cl)C1=O [Compound I-299, 4-(2,6-dichlorobenzyl)-N-hydroxy-2,2-dimethyl-3-oxo-3,4-dihydro-2H-benzo[b][1,4]oxazine-6-carboxamide]
31 | ≤ 25 nM | CC(C)Oc1ccc(CN2C(=O)COc3ccc(C(=O)NO)cc32)cc1 [Compound I-330, N-hydroxy-4-(4-isopropoxybenzyl)-3-oxo-3,4-dihydro-2H-benzo[b][1,4]oxazine-6-carboxamide]
